What was measured:
[1] = Partitioning of resveratrol from biomass (grape pomace) in polymer-salt (PEG-salt) aqueous two-phase system; format: physicochemical
Excerpt: The partitioning of the polyphenolic biomolecule can be quantified using parameters such as the partition coefficient (K) and the yield (Y). The partition coefficient reflects the extent of separation of the polyphenolic compound into the polymer phase. It is defined as the ratio of […]. Partition coefficients of more than 1 indicate a higher concentration of the specific molecule in the top phase. The partition coefficient (K) is calculated with equation 5 in which cT is the concentration of the molecule in the top phase and CB is the concentration of the molecule in the bottom phase. K = (CT)/(CB) [formula]
Polymer-salt aqueous two-phase systems with PEG of different molecular weights were prepared using PEG 400 (Mw =400 g/mol), PEG 1000 (Mw =1000 g/mol), PEG 4000 (Mw =4000 g/mol), PEG 8000 (Mw =8000 g/mol), and PEG 10000 (Mw =10 000 g/mol).
Two different ATP systems with different polymer and salt concentrations were investigated. System A contains 11 wt% PEG and 26 wt% ammonium sulphate and system B contains 13 wt% PEG and 13 wt% ammonium sulphate. Table 2. Quantities of materials used to extract resveratrol in systems A and B
20 ml pomace was added to a polymer-salt ATP systems comprising 20 ml water, 5 g PEG 8000 (11 wt%) and 2.5 g (7 wt%), 5 g (13 wt%), 8 g (19 wt%) and 12 g (26 wt%) ammonium salt, respectively.
20 ml pomace was added to a polymer-salt ATP systems comprising 11 wt% PEG 8000 and 26 wt% tartrate, citrate, sulphate and phosphate salt solutions (20 ml water), respectively. The partition coefficient and percentage extraction of resveratrol to the PEG top phase was determined for each of the different types of salts.
The bottom phase of the ATPS (consisting of the salt solution) therefore only contained trace amounts of resveratrol, with the remaining resveratrol still contained in the biomass. It was therefore assumed that within the bottom phases exiting the polymer-salt ATPS reactor, that the remaining resveratrol that was not extracted would be contained within the raw biomass of grape pomace and canes, and not in the salt solution.

[2] = format: physicochemical; settings: pH 11.03
Experimental: Polymer-polymer aqueous two-phase systems were prepared using maltodextrin (mdx) in combination with PEG 4000 and PEG 8000. […] Demineralised water was added to yield a net weight of 200 g of solution.
Control/base solutions were prepared to be used as a baseline in the spectrophotometer by preparing the same solutions described above, but without resveratrol.
The aqueous two-phase systems were formed by continuously stirring the solutions using a magnetic stirrer for 30 minutes. […] In both the extraction solution and in the base solution two distinct phases were formed. 1 ml of the bottom phase of the extraction solution was separated from the system using a pipette tapped into an Erlenmeyer flask and 1 ml of the bottom phase of the blank solution was poured into a separate Erlenmeyer flask. The solutions were diluted by adding 50 ml of demineralised water to each.
Cuvettes containing the base solution were placed in the spectrophotometer and the system baselined. One of the cuvettes was then removed, rinsed with the diluted top phase of the extraction solution, and filled with the solution. […] The absorbance at the peak was then used to quantify the resveratrol content.
The resveratrol content of the top phase was quantified using the same methodology as for the bottom phase, using the top phase of the base solution to baseline the spectrophotometer. […]

[3] = water; cited from earlier work
[4] = Partitioning of resveratrol from biomass (grape pomace) in polymer-salt (PEG-salt) aqueous two-phase system; format: physicochemical; settings: about 10% (w/w) PEG 8000 and about 15% (w/w) tartrate salt; raw biomass

Partition Coefficient ([1]; 11 wt% PEG 8000, Ammonium sulphate, 25,5 wt% salt, to PEG top phase): 351 | Partition Coefficient ([1]; 11 wt% PEG 8000, Potassium hydrogen phosphate trihydrate, 25,5 wt% salt, to PEG top phase): 218 | Partition Coefficient ([1]; 11 wt% PEG 8000, Potassium sodium tartrate tetrahydrate, 25,5 wt% salt, to PEG top phase): 177 | Partition Coefficient ([1]; 11 wt% PEG 8000, Tri-sodium citrate dihydrate, 25,5 wt% salt, to PEG top phase): 79 | Partition Coefficient ([1]; PEG 8000 (11 wt%), 7 wt% ammonium sulphate, to PEG top phase): 78 | Partition Coefficient ([1]; PEG 8000 (11 wt%), 13 wt% ammonium sulphate, to PEG top phase): 242 | Partition Coefficient ([1]; PEG 8000 (11 wt%), 19 wt% ammonium sulphate, to PEG top phase): 334 | Partition Coefficient ([1]; PEG 8000 (11 wt%), 26 wt% ammonium sulphate, to PEG top phase): 351 | Partition Coefficient ([1]; System A: 11 wt% PEG, 26 wt% ammonium sulphate, PEG 400, to PEG top phase): 164 | Partition Coefficient ([1]; System A: 11 wt% PEG, 26 wt% ammonium sulphate, PEG 1000, to PEG top phase): 177 | Partition Coefficient ([1]; System A: 11 wt% PEG, 26 wt% ammonium sulphate, PEG 4000, to PEG top phase): 341 | Partition Coefficient ([1]; System A: 11 wt% PEG, 26 wt% ammonium sulphate, PEG 8000, to PEG top phase): 351 | Partition Coefficient ([1]; System A: 11 wt% PEG, 26 wt% ammonium sulphate, PEG 10000, to PEG top phase): 174 | Partition Coefficient ([1]; System B: 13 wt% PEG, 13 wt% ammonium sulphate, PEG 4000, to PEG top phase): 33 | Partition Coefficient ([1]; System B: 13 wt% PEG, 13 wt% ammonium sulphate, PEG 8000, to PEG top phase): 242 | Partition Coefficient ([1]; System B: 13 wt% PEG, 13 wt% ammonium sulphate, PEG 10000, to PEG top phase): 200 | partition coefficient of the system [2]: 1.36 | resveratrol partitioning to the top phase [4]: 99.6%
Compound: Oc1ccc(C=Cc2cc(O)cc(O)c2)cc1 [resveratrol]
aqueous solubility [3]: 3 mg/100 ml

Source: patent EP3760291B1 (Stellenbosch University, priority 2019, dated 2021)
